Experiments:
Type in all cases: in vivo
[1] = tested on: maize (ZEAMX); experiment: Greenhouse postemergence safening trial, visual injury on maize
Text: (§1) Greenhouse Trial Methodology—Evaluation of Postemergence Herbicidal Safening in Crops
(§2) Seeds of the desired test plant species were planted in a 90:10% v/v (volume/volume) mixture of PRO-MIX® BX (Premier Tech Horticulture, Quakertown, PA, USA) and PROFILE® GREENS GRADE™ (Profile Products LLC, Buffalo Grove, IL, USA) planting mixture, which typically has a pH of 5.2 to 6.2 and an organic matter content of at least 50 percent, in plastic pots with a surface area of 103.2 square centimeters (cm^2). When required to ensure good germination and healthy plants, a fungicide treatment and/or other chemical or physical treatment was applied. The plants were grown for 7-36 days (d) in a greenhouse with an approximate 14-hour (h) photoperiod which was maintained at about 23° C. during the day and 22° C. during the night. Nutrients and water were added on a regular basis and supplemental lighting was provided with overhead metal halide 1000-Watt lamps as necessary. The plants were employed for testing when they reached the second or third true leaf stage.
(§3) Emulsifiable concentrates of each of each pyridine carboxylate herbicide (Compound A or Compound B) were prepared at 100 grams acid equivalent per liter (g ae/L). An aliquot of each emulsifiable concentrate was placed in a 25 mL glass vial and diluted with an aqueous mixture of 1.25% (v/v) ACTIROB® B esterified rapeseed oil (Bayer Crop Science, Research Triangle Park, NC, USA) or MSO® Concentrate with LECI-TECH® methylated soybean oil (Loveland Products, Loveland, CO, USA) to obtain concentrated stock solutions at the highest application rate for each herbicide, based upon a 12 milliliter (mL) application volume at a rate of 187 liters per hectare (L/ha). The concentrated stock solutions were further diluted with an aqueous mixture of 1.25% v/v ACTIROB® B or MSO® Concentrate with LECI-TECH® to obtain stock solutions at reduced application rates for each herbicide. Spray solutions of the herbicide combinations (Compound A or Compound B plus safener) were prepared by adding weighed amounts or aliquots of the safener to the stock solutions of Compound A or Compound B to form 12-mL spray solutions in two-way combinations.
(§4) The spray solutions were applied to the plant material with an overhead Mandel track sprayer equipped with 8002E nozzles calibrated to deliver 187 L/ha over an application area of 0.503 square meters (m^2) at a spray height of 18 inches (43 centimeters (cm)) above the average plant canopy. Control plants were sprayed in the same manner with the solvent blank. All herbicide (component a) application rates are given as “g ae/ha” and all safener (component b) application rates are given as “g ai/ha.”
(§5) The treated plants and control plants were placed in a greenhouse as described above and watered by sub-irrigation to prevent wash-off of the test compounds. After 20-22 d, the condition of the test plants as compared with that of the control plants was determined visually and scored on a scale of 0 to 100 percent where 0 corresponds to no injury and 100 corresponds to complete kill.

[2] = tested on: ivyleaf morningglory (IPOHE, Ipomoea hederacea); experiment: Greenhouse postemergence trial, visual injury on ivyleaf morningglory; conditions: Table 19
Text: as §1, §2
as §3, with “combinations. […]” for “combinations.”
as §5

[3] = tested on: Polygonum convulvus (wild buckwheat), POLCO; experiment: Greenhouse postemergence trial, visual injury on wild buckwheat
Text: as §1, §2, §3, §4, §5

[4] = tested on: velvetleaf (ABUTH, Abutilon theophrasti); experiment: Greenhouse postemergence trial, visual injury on velvetleaf; conditions: Table 19
Text: as §1, §2
as §3, with “combinations. […]” for “combinations.”
as §5

[5] = tested on: giant foxtail (SETFA, Setaria faberi); experiment: Greenhouse postemergence trial, visual injury on giant foxtail; conditions: Table 19
Text: as §1, §2
as §3, with “combinations. […]” for “combinations.”
as §5

[6] = tested on: barnyardgrass (ECHCG, Echinochloa crus-galli); experiment: Greenhouse postemergence trial, visual injury on barnyardgrass; conditions: Table 19
Text: as §1, §2
as §3, with “combinations. […]” for “combinations.”
as §5

[7] = tested on: pigweed (AMARE, Amaranthus retroflexus); experiment: Greenhouse postemergence trial, visual injury on pigweed
Text: as §1, §2, §3, §4, §5

[8] = tested on: Fagopyrum esculentum (common buckwheat), FAGES; experiment: Greenhouse postemergence trial, visual injury on common buckwheat
Text: as §1, §2, §3, §4, §5

[9] = tested on: Chinese sprangletop (LEFCH, Leptochloa chinensis); experiment: Greenhouse postemergence trial, visual injury on Chinese sprangletop; conditions: Table 19
Text: as §1, §2
as §3, with “combinations. […]” for “combinations.”
as §5

[10] = tested on: kochia (KCHSC, Kochia scoparia); experiment: Greenhouse postemergence trial, visual injury on kochia; conditions: Table 19
Text: as §1, §2
as §3, with “combinations. […]” for “combinations.”
as §5

[11] = tested on: Avena sativa (common oat), AVESA; experiment: Greenhouse postemergence safening trial, visual injury on common oat
Description: (§6) Greenhouse Trial Methodology-Evaluation of Postemergence Herbicidal […] in Crops […] When required to ensure good germination and healthy plants, a fungicide treatment and/or other chemical or physical treatment was applied. The plants were grown for 7-36 days (d) in a greenhouse with an approximate 14-hour (h) photoperiod which was maintained at about 23° C. during the day and 22° C. during the night. Nutrients and water were added on a regular basis and supplemental lighting was provided with overhead metal halide 1000-Watt lamps as necessary. The plants were employed for testing when they reached the second or third true leaf stage. Emulsifiable concentrates of each of each pyridine carboxylate herbicide (Compound A or Compound B) were prepared at 100 grams acid equivalent per liter (g ae/L). […] The concentrated stock solutions were further diluted with an aqueous mixture of 1.25% […] or MSO® Concentrate with LECI-TECH® to obtain stock solutions at reduced application rates for each herbicide. Spray solutions of the herbicide combinations (Compound A or Compound B plus safener) were prepared by adding weighed amounts or aliquots of the safener to the stock solutions of Compound A or Compound B to form 12-mL spray solutions in two-way combinations. […] Control plants were sprayed in the same manner with the solvent blank. All herbicide (component a) application rates are given as “g ae/ha” and all safener (component b) application rates are given as “g ai/ha.” The treated plants and control plants were placed in a greenhouse as described above and watered by sub-irrigation to prevent wash-off of the test compounds.

[12] = tested on: Triticum aestivum (durum wheat), TRZDU; experiment: Greenhouse postemergence safening trial, visual injury on durum wheat
Description: as §6

[13] = tested on: Italian ryegrass (LOLMU, Lolium multiflorum); experiment: Greenhouse postemergence trial, visual injury on Italian ryegrass; conditions: Table 19
Text: as §1, §2
as §3, with “combinations. […]” for “combinations.”
as §5

[14] = CQC-mexyl 20 g/ha alone, Table 17
[15] = CQC-mexyl 20 g/ha alone, Table 19
[16] = CQC-mexyl 40 g/ha alone, Table 17
[17] = CQC-mexyl 40 g/ha alone, Table 19
[18] = CQC-mexyl 80 g/ha alone, Table 17
[19] = CQC-mexyl 80 g/ha alone, Table 19
[20] = CQC-mexyl 120 g/ha alone, Table 17
[21] = CQC-mexyl 40 g/ha alone, Table 14
[22] = Compound A 20 g/ha alone, Table 19
[23] = Compound A 40 g/ha alone, Table 17
[24] = Compound A 40 g/ha alone, Table 18
[25] = Compound A 40 g/ha alone, Table 14

Compound: CCCCCC(C)OC(=O)COc1ccc(Cl)c2cccnc12 (centres unmarked) [CQC-mexyl, cloquintocet-mexyl]
- % visual injury, Ob [1, 14]: 0%
- % visual injury, Ob [1, 15]: 0%
- % visual injury, Ob [1, 16]: 0%
- % visual injury, Ob [1, 17]: 0%
- % visual injury, Ob [1, 18]: 0%
- % visual injury, Ob [1, 19]: 0%
- % visual injury, Ob [1, 20]: 0%
- % visual injury, Ob ([2]; CQC-mexyl 20 g/ha alone): 0%
- % visual injury, Ob ([2]; CQC-mexyl 40 g/ha alone): 0%
- % visual injury, Ob ([2]; CQC-mexyl 80 g/ha alone): 0%
- % visual injury, Ob [3, 15]: 0%
- % visual injury, Ob [3, 17]: 0%
- % visual injury, Ob [3, 19]: 0%
- % visual injury, Ob ([3]; safener alone 5 g/ha): 0%
- % visual injury, Ob ([3]; safener alone 10 g/ha): 0%
- % visual injury, Ob ([3]; safener alone 20 g/ha): 0%
- % visual injury, Ob ([3]; safener alone 40 g/ha): 0%
- % visual injury, Ob ([4]; CQC-mexyl 20 g/ha alone): 0%
- % visual injury, Ob ([4]; CQC-mexyl 40 g/ha alone): 0%
- % visual injury, Ob ([4]; CQC-mexyl 80 g/ha alone): 0%
- % visual injury, Ob ([5]; CQC-mexyl 20 g/ha alone): 0%
- % visual injury, Ob ([5]; CQC-mexyl 40 g/ha alone): 0%
- % visual injury, Ob ([5]; CQC-mexyl 80 g/ha alone): 0%
- % visual injury, Ob ([6]; CQC-mexyl 20 g/ha alone): 0%
- % visual injury, Ob ([6]; CQC-mexyl 40 g/ha alone): 0%
- % visual injury, Ob ([6]; CQC-mexyl 80 g/ha alone): 0%
- % visual injury, Ob [7, 14]: 0%
- % visual injury, Ob [7, 15]: 0%
- % visual injury, Ob [7, 16]: 0%
- % visual injury, Ob [7, 17]: 0%
- % visual injury, Ob [7, 18]: 0%
- % visual injury, Ob [7, 19]: 0%
- % visual injury, Ob [7, 20]: 0%
- % visual injury, Ob ([8]; safener alone 5 g/ha): 0%
- % visual injury, Ob ([8]; safener alone 10 g/ha): 0%
- % visual injury, Ob ([8]; safener alone 20 g/ha): 0%
- % visual injury, Ob ([8]; safener alone 40 g/ha): 0%
- % visual injury, Ob ([9]; CQC-mexyl 20 g/ha alone): 0%
- % visual injury, Ob ([9]; CQC-mexyl 40 g/ha alone): 0%
- % visual injury, Ob ([9]; CQC-mexyl 80 g/ha alone): 0%
- % visual injury, Ob ([10]; CQC-mexyl 20 g/ha alone): 0%
- % visual injury, Ob ([10]; CQC-mexyl 40 g/ha alone): 0%
- % visual injury, Ob ([10]; CQC-mexyl 80 g/ha alone): 0%
- % visual injury, Ob [11, 21]: 0%
- % visual injury, Ob ([11]; safener alone 40 g/ha): 0%
- % visual injury, Ob [12, 21]: 0%
- % visual injury, Ob ([12]; safener alone 40 g/ha): 0%
- % visual injury, Ob ([13]; CQC-mexyl 20 g/ha alone): 0%
- % visual injury, Ob ([13]; CQC-mexyl 40 g/ha alone): 0%
- % visual injury, Ob ([13]; CQC-mexyl 80 g/ha alone): 0%

Compound: N#CCOC(=O)c1nc(-c2ccc3cc[nH]c3c2F)c(F)c(N)c1Cl [Compound A, cyanomethyl 4-amino-3-chloro-5-fluoro-6-(7-fluoro-1H-indol-6-yl)pyridine-2-carboxylate]
- % visual injury, Ob [1, 22]: 13%
- % visual injury, Ob [1, 23]: 55%
- % visual injury, Ob [1, 24]: 55%
- % visual injury, Ob ([2]; Compound A 20 g/ha alone): 0%
- % visual injury, Ob [3, 22]: 100%
- % visual injury, Ob ([4]; Compound A 20 g/ha alone): 95%
- % visual injury, Ob ([5]; Compound A 20 g/ha alone): 65%
- % visual injury, Ob ([6]; Compound A 20 g/ha alone): 85%
- % visual injury, Ob [7, 22]: 93%
- % visual injury, Ob [7, 23]: 100%
- % visual injury, Ob [7, 24]: 100%
- % visual injury, Ob ([9]; Compound A 20 g/ha alone): 60%
- % visual injury, Ob ([10]; Compound A 20 g/ha alone): 97%
- % visual injury, Ob [11, 25]: 0%
- % visual injury, Ob ([11]; herbicide alone 40 g/ha): 0%
- % visual injury, Ob [12, 25]: 45%
- % visual injury, Ob ([12]; herbicide alone 40 g/ha): 45%
- % visual injury, Ob ([13]; Compound A 20 g/ha alone): 5%

Source: patent US12310364B2, “Safened compositions comprising pyridine carboxylate herbicides and cloquintocet” (Corteva Agriscience LLC, priority 2018, dated 2025)
